Target: T1, flavohemoglobin (gFlHb) (Giardia duodenalis, UniProt E2RTZ4)
T1 construct: gene hmpA; recombinant gFlHb fused to an N-terminal His6-tag
Test: UV-visible spectral titration of ferric heme at […] nm (also stimulates NADH oxidase activity)
Type: binding

T1 sequence (E2RTZ4 whole entry, the tested form may be a part): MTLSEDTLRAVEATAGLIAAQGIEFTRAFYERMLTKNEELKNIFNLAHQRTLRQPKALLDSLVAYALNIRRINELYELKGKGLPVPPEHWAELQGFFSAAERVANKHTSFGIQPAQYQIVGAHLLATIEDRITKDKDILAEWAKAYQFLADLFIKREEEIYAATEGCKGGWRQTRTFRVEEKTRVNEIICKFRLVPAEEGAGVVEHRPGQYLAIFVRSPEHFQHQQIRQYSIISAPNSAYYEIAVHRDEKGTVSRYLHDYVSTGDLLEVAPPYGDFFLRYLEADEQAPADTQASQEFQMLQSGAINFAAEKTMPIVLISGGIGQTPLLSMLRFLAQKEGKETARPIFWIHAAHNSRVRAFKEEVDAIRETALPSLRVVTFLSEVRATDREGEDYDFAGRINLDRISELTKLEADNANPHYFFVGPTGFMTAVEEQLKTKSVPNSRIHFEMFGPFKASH

SMILES	Kd [nM]
CCCSc1ccc2nc(NC(=O)OC)[nH]c2c1 [ABZ, albendazole]	23 ± 9
CCC[S+]([O-])c1ccc2[nH]c(NC(=O)OC)nc2c1 (centres unmarked) [ABZSO, albendazole sulfoxide]	19 ± 8

Source: publication PMC9514659, “Giardia duodenalis: Flavohemoglobin is involved in drug biotransformation and resistance to albendazole” (PLoS Pathogens, 2022)
